Data reported in ChEMBL document CHEMBL3400109, “Synthesis and biological evaluation of C-13' substituted 7'-homo-anhydrovinblastine derivatives” (Bioorg Med Chem Lett, 2015).

Columns and labels:
[1] = Cytotoxicity against human U87 cells assessed as inhibition of cell proliferation after 72 hrs; type: functional, cell-based, U-87MG ATCC; details: U-87 MG
Tubulin (Homo sapiens) = Tubulin (Homo sapiens) (UniProt P68371+Q9H4B7+P0DPH7+P68366+Q13509+Q71U36+P04350+Q3ZCM7+P07437+P68363+Q9BQE3+Q6PEY2+Q13885+Q9BVA1+Q9BUF5); assay: (§1) Inhibition of tubulin (unknown origin) polymerization at 10 mg/ml; type: protein-complex assay
[2] = Cytotoxicity against human HCT116 cells assessed as inhibition of cell proliferation after 72 hrs; type: functional, cell-based; details: HCT-116, 72 h
K562 = assay: Cytotoxicity against human K562 cells assessed as inhibition of cell proliferation after 72 hrs; type: functional, cell-based; details: K562, 72 h
Tubulin [3] = assay: as §1; type: protein-complex assay, Homo sapiens
Tubulin [4] = assay: Inhibition of tubulin (unknown origin) polymerization; type: protein-complex assay, Homo sapiens

Structure (SMILES) | IC50 [1] [nM] | inhibition (Tubulin (Homo sapiens)) [%] | IC50 [2] [nM] | IC50 (K562) [nM] | IC50 (Tubulin [3]) [nM] | IC50 (Tubulin [4]) [nM]
CCC1=CC2CN(/C=C(/C(=O)OC)Cc3c([nH]c4ccc(C=O)cc34)[C@@](C(=O)OC)(c3cc4c(cc3OC)N(C)[C@H]3[C@@](O)(C(=O)OC)[C@H](OC(C)=O)[C@]5(CC)C=CCN6CC[C@]43[C@@H]65)C2)C1 (stereo partly specified) | 23 | 11 | 270 | 40 | – | –
CCC1=CC2CN(C1)/C(C(=O)NC(C)C)=C(/C(=O)OC)Cc1c([nH]c3ccc(C)cc13)[C@@](C(=O)OC)(c1cc3c(cc1OC)N(C)[C@H]1[C@@](O)(C(=O)OC)[C@H](OC(C)=O)[C@]4(CC)C=CCN5CC[C@]31[C@@H]54)C2 (stereo partly specified) | 33 | 0 | 20 | 1 | – | –
C#Cc1ccc2[nH]c3c(c2c1)C/C(C(=O)OC)=C(/C(=O)NC(C)C)N1CC(CC)=CC(C1)C[C@]3(C(=O)OC)c1cc2c(cc1OC)N(C)[C@H]1[C@@](O)(C(=O)OC)[C@H](OC(C)=O)[C@]3(CC)C=CCN4CC[C@]21[C@@H]43 (stereo partly specified) | 2000 | 16 | 3000 | 600 | – | –
CCC1=CC2CN(/C=C(/C(=O)OC)Cc3c([nH]c4ccc(I)cc34)[C@@](C(=O)OC)(c3cc4c(cc3OC)N(C)[C@H]3[C@@](O)(C(=O)OC)[C@H](OC(C)=O)[C@]5(CC)C=CCN6CC[C@]43[C@@H]65)C2)C1 (stereo partly specified) | 5000 | – | 7000 | 1000 | 6200 | –
C#Cc1ccc2[nH]c3c(c2c1)C/C(C(=O)OC)=C\N1CC(CC)=CC(C1)C[C@]3(C(=O)OC)c1cc2c(cc1OC)N(C)[C@H]1[C@@](O)(C(=O)OC)[C@H](OC(C)=O)[C@]3(CC)C=CCN4CC[C@]21[C@@H]43 (stereo partly specified) | 1600 | 27 | 2500 | 600 | – | –
CCC1=CC2CN(/C=C(/C(=O)OC)Cc3c([nH]c4ccc(Br)cc34)[C@@](C(=O)OC)(c3cc4c(cc3OC)N(C)[C@H]3[C@@](O)(C(=O)OC)[C@H](OC(C)=O)[C@]5(CC)C=CCN6CC[C@]43[C@@H]65)C2)C1 (stereo partly specified) | 3000 | 23 | 3000 | 500 | – | –
CCC1=CC2CN(C1)/C(C(=O)NC(C)C)=C(/C(=O)OC)Cc1c([nH]c3ccc(C=O)cc13)[C@@](C(=O)OC)(c1cc3c(cc1OC)N(C)[C@H]1[C@@](O)(C(=O)OC)[C@H](OC(C)=O)[C@]4(CC)C=CCN5CC[C@]31[C@@H]54)C2 (stereo partly specified) | 119 | 25 | 47 | 16 | – | –
CCC1=CC2CN(/C=C(/C(=O)OC)Cc3c([nH]c4ccc(C)cc34)[C@@](C(=O)OC)(c3cc4c(cc3OC)N(C)[C@H]3[C@@](O)(C(=O)OC)[C@H](OC(C)=O)[C@]5(CC)C=CCN6CC[C@]43[C@@H]65)C2)C1 (stereo partly specified) | 11 | 23 | 50 | 20 | – | –
CCC1=C[C@@H]2CN(C1)Cc1c([nH]c3ccccc13)[C@@](C(=O)OC)(c1cc3c(cc1OC)N(C)[C@H]1[C@@](O)(C(=O)OC)[C@H](OC(C)=O)[C@]4(CC)C=CCN5CC[C@]31[C@@H]54)C2 [VINORELBINE] | 3.5 | – | 15 | – | – | 700
CC[C@]1(O)C[C@@H]2CN(CCc3c([nH]c4ccccc34)[C@@](C(=O)OC)(c3cc4c(cc3OC)N(C)[C@H]3[C@@](O)(C(=O)OC)[C@H](OC(C)=O)[C@]5(CC)C=CCN6CC[C@]43[C@@H]65)C2)C1 [VINBLASTINE] | 1 | – | 2 | 10 | – | –
CCC1=CC2CN(C1)/C(C(=O)NC(C)C)=C(/C(=O)OC)Cc1c([nH]c3ccc(I)cc13)[C@@](C(=O)OC)(c1cc3c(cc1OC)N(C)[C@H]1[C@@](O)(C(=O)OC)[C@H](OC(C)=O)[C@]4(CC)C=CCN5CC[C@]31[C@@H]54)C2 (stereo partly specified) | 3000 | 44 | 5000 | – | – | –
